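Each compound was tested at five concentrations against cells in 96-well plates for 48 hours. GI50 = concentration required for 50% inhibition of growth.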 The source made the active and inactive calls. No stated cut-off is given here; in the data, active = GI50 up to about 1.1 µM and inactive = higher.
Key:
Assay in all cases: inhibition of tumour cell growth, NCI panel, 48 h
HT-29 = test system: HT-29
U-251 = test system: U-251
SK-MEL-2 = test system: SK-MEL-2
OVCAR-8 = test system: OVCAR-8
OVCAR-3 = test system: OVCAR-3
SK-OV-3 = test system: SK-OV-3
RPMI-8226 = test system: RPMI-8226
OVCAR-4 = test system: OVCAR-4
HOP-92 = test system: HOP-92
KM12 = test system: KM12
NCI-H460 = test system: NCI-H460
HCC 2998 = test system: HCC 2998
A498 = test system: A498
HOP-62 = test system: HOP-62
SK-MEL-28 = test system: SK-MEL-28

Measured: GI50

O=C1CCC(=O)C(C(=O)CCC(=O)Nc2ccc(Cl)cc2)C1 (stereo not drawn)
inactive: HT-29 > 100 µM | U-251 > 100 µM | SK-MEL-2 > 100 µM | OVCAR-8 > 100 µM | OVCAR-3 > 100 µM | SK-OV-3 > 100 µM | RPMI-8226 > 100 µM | OVCAR-4 > 100 µM | HOP-92 > 100 µM | KM12 > 100 µM | NCI-H460 > 100 µM | HCC 2998 > 100 µM | A498 > 100 µM

CCOC(=O)c1cnc2sc3ccc4ccccc4c3n2c1=O
inactive: HT-29 87.5 µM | U-251 94 µM | SK-MEL-2 41.5 µM | OVCAR-8 48.6 µM | OVCAR-3 82.2 µM | HOP-62 > 100 µM | SK-OV-3 78.5 µM | RPMI-8226 27.9 µM | OVCAR-4 38.9 µM | HOP-92 28.1 µM | SK-MEL-28 98.6 µM | KM12 68.4 µM | NCI-H460 > 100 µM | HCC 2998 > 100 µM

N#CC1(C#N)C(c2ccc(C3C(C#N)(C#N)C3(C#N)C#N)cc2)C1(C#N)C#N
inactive: HT-29 > 100 µM | U-251 > 100 µM | SK-MEL-2 > 100 µM | OVCAR-8 > 100 µM | OVCAR-3 > 100 µM | HOP-62 > 100 µM | SK-OV-3 > 100 µM | RPMI-8226 > 100 µM | OVCAR-4 > 100 µM | HOP-92 > 100 µM | SK-MEL-28 > 100 µM | KM12 > 100 µM | NCI-H460 > 100 µM | HCC 2998 > 100 µM

c1ccc(C2=NOC3(c4ccccc4)SC4CCCCC4CN23)cc1 (stereo not drawn)
inactive: HT-29 28.2 µM | U-251 15.2 µM | SK-MEL-2 31.3 µM | OVCAR-3 39.4 µM | HOP-62 38.7 µM | SK-OV-3 77.4 µM | RPMI-8226 22 µM | OVCAR-4 45 µM | HOP-92 15.9 µM | SK-MEL-28 89.1 µM | KM12 25.5 µM | NCI-H460 32.6 µM | HCC 2998 55.1 µM | A498 35.5 µM

CC1=C2[C@H](c3ccccc3)C3C=CC2(c2ccccc23)N(C(=O)C(c2ccccc2)c2ccccc2)C1=O (stereo partly drawn)
inactive: HT-29 > 100 µM | U-251 > 100 µM | OVCAR-8 > 100 µM | OVCAR-3 > 100 µM | HOP-62 > 100 µM | SK-OV-3 > 100 µM | OVCAR-4 > 100 µM | HOP-92 > 100 µM | SK-MEL-28 > 100 µM | KM12 > 100 µM | NCI-H460 > 100 µM | HCC 2998 > 100 µM | A498 > 100 µM

COc1ccc2c(c1)[n+]([O-])c(-c1ccc(C)cc1)c(N)[n+]2[O-]
inactive: HT-29 52.5 µM | U-251 54.7 µM | SK-MEL-2 40.6 µM | OVCAR-8 66.2 µM | OVCAR-3 31 µM | HOP-62 > 100 µM | SK-OV-3 > 100 µM | RPMI-8226 75.5 µM | OVCAR-4 88.7 µM | HOP-92 > 100 µM | SK-MEL-28 89.5 µM | KM12 44.8 µM | NCI-H460 38.3 µM | A498 > 100 µM

O=C(Nc1cc(Cl)ccc1Cl)C(=O)C(c1cnc2ccccc2n1)[N+](=O)[O-] (stereo not drawn)
inactive: HT-29 > 100 µM | U-251 > 100 µM | OVCAR-8 > 100 µM | OVCAR-3 > 100 µM | HOP-62 > 100 µM | SK-OV-3 > 100 µM | RPMI-8226 > 100 µM | OVCAR-4 > 100 µM | HOP-92 > 100 µM | SK-MEL-28 > 100 µM | KM12 > 100 µM | NCI-H460 > 100 µM | HCC 2998 > 100 µM | A498 > 100 µM

CC1=CC(=O)N2[C@H](OC[C@@H]2C(C)C)O1
inactive: HT-29 > 100 µM | U-251 > 100 µM | SK-MEL-2 > 100 µM | OVCAR-8 > 100 µM | OVCAR-3 > 100 µM | HOP-62 > 100 µM | SK-OV-3 > 100 µM | RPMI-8226 > 100 µM | OVCAR-4 > 100 µM | HOP-92 > 100 µM | SK-MEL-28 > 100 µM | KM12 > 100 µM | NCI-H460 > 100 µM

O=C1OC(c2ccccc2)=N/C1=C\c1c(O)cc(O)cc1O
inactive: HT-29 > 100 µM | U-251 > 100 µM | SK-MEL-2 > 100 µM | OVCAR-8 > 100 µM | OVCAR-3 > 100 µM | SK-OV-3 > 100 µM | RPMI-8226 > 100 µM | OVCAR-4 > 100 µM | HOP-92 > 100 µM | SK-MEL-28 > 100 µM | KM12 > 100 µM | A498 > 100 µM

Cc1c(C2Cc3ccccc3N2C(=O)/C=C\C(=O)O)c2ccccc2n1C (stereo not drawn)
inactive: HT-29 35.3 µM | U-251 20.1 µM | SK-MEL-2 17.7 µM | OVCAR-8 18.5 µM | OVCAR-3 17.5 µM | HOP-62 27.6 µM | SK-OV-3 23.4 µM | OVCAR-4 30.6 µM | HOP-92 17.7 µM | KM12 18.4 µM | NCI-H460 > 100 µM | HCC 2998 21.4 µM | A498 18 µM

O=[N+]([O-])c1ccc2nc(/C(=N\Nc3ccccc3)C(O)c3ccc4c(c3)OCO4)c(O)nc2c1 (stereo not drawn)
inactive: HT-29 97.1 µM | U-251 > 100 µM | SK-MEL-2 > 100 µM | OVCAR-8 > 100 µM | OVCAR-3 > 100 µM | HOP-62 > 100 µM | SK-OV-3 > 100 µM | RPMI-8226 86.1 µM | OVCAR-4 > 100 µM | HOP-92 11 µM | SK-MEL-28 > 100 µM | KM12 41.6 µM | NCI-H460 > 100 µM | HCC 2998 75.2 µM

CCOC(=O)c1nc2ccc([N+](=O)[O-])cc2c2c1CCO2
inactive: HT-29 > 100 µM | U-251 > 100 µM | SK-MEL-2 > 100 µM | OVCAR-8 > 100 µM | OVCAR-3 > 100 µM | HOP-62 > 100 µM | SK-OV-3 > 100 µM | OVCAR-4 > 100 µM | SK-MEL-28 > 100 µM | KM12 > 100 µM | NCI-H460 > 100 µM | HCC 2998 > 100 µM | A498 > 100 µM

Oc1cc(Cl)ncn1
inactive: HT-29 > 100 µM | U-251 > 100 µM | SK-MEL-2 > 100 µM | OVCAR-8 > 100 µM | OVCAR-3 > 100 µM | HOP-62 > 100 µM | SK-OV-3 > 100 µM | RPMI-8226 > 100 µM | OVCAR-4 > 100 µM | SK-MEL-28 > 100 µM | KM12 > 100 µM | NCI-H460 > 100 µM | HCC 2998 > 100 µM | A498 > 100 µM

Cc1ccc(N2C(=O)/C(=C/c3ccc(N(CCC#N)CCC#N)cc3)N=C2COc2ccc(Cl)cc2Cl)cc1
inactive: HT-29 > 100 µM | U-251 > 100 µM | SK-MEL-2 > 100 µM | OVCAR-8 > 100 µM | OVCAR-3 > 100 µM | HOP-62 > 100 µM | SK-OV-3 > 100 µM | RPMI-8226 > 100 µM | OVCAR-4 > 100 µM | SK-MEL-28 > 100 µM | KM12 > 100 µM | NCI-H460 > 100 µM

CC(C)CCS(=O)(=O)OCCCCOS(=O)(=O)CCC(C)C
inactive: HT-29 > 100 µM | U-251 > 100 µM | OVCAR-8 > 100 µM | OVCAR-3 16.4 µM | HOP-62 13.9 µM | SK-OV-3 > 100 µM | RPMI-8226 > 100 µM | SK-MEL-28 > 100 µM | KM12 > 100 µM | NCI-H460 > 100 µM | HCC 2998 > 100 µM

From ChEMBL document CHEMBL1201862, “PubChem BioAssay data set” (2004)
